Results from ChEMBL document CHEMBL3045787, “Synthesis of novel 1,4-naphthoquinone derivatives: antibacterial and antifungal agents” (2013).
Values after ≈ are worked out from the molar mass of the structure shown. Active and inactive are the calls of the source. The rule behind the calls is not given here.

How the values were obtained:
Mycobacterium [1] = experiment: Antibacterial activity against Mycobacterium luteum B-917 assessed as growth inhibition at 0.5% after 24 hr by agar disk diffusion method; format: functional
Aspergillus niger [2] = experiment: Antifungal activity against Aspergillus niger assessed as growth inhibition after 24 to 72 hr by serial dilution method; format: functional
Mycobacterium [3] = experiment: Antibacterial activity against Mycobacterium luteum B-917 assessed as growth inhibition at 0.1% after 24 hr by agar disk diffusion method; format: functional
Aspergillus niger [4] = experiment: Antifungal activity against Aspergillus niger assessed as growth inhibition at 0.5% after 48 to 72 hr by agar disk diffusion method; format: functional
Escherichia coli [5] = experiment: Antibacterial activity against Escherichia coli B 906 assessed as growth inhibition after 24 to 72 hr by serial dilution method; format: functional, organism-based
Escherichia coli [6] = experiment: Antibacterial activity against Escherichia coli B 906 assessed as growth inhibition at 0.5% after 24 hr by agar disk diffusion method; format: functional
Aspergillus niger [7] = experiment: Antifungal activity against Aspergillus niger assessed as growth inhibition at 0.1% after 48 to 72 hr by agar disk diffusion method; format: functional
Staphylococcus aureus [8] = experiment: Antibacterial activity against Staphylococcus aureus 209-P assessed as growth inhibition at 0.5% after 24 hr by agar disk diffusion method; format: functional
Staphylococcus aureus [9] = experiment: Antibacterial activity against Staphylococcus aureus 209-P assessed as growth inhibition after 24 to 72 hr by serial dilution method; format: functional
Mycobacterium [10] = experiment: Antibacterial activity against Mycobacterium luteum B-917 assessed as growth inhibition after 24 to 72 hr by serial dilution method; format: functional
Yamadazyma tenuis [11] = experiment: Antifungal activity against Candida tenuis assessed as growth inhibition at 0.5% after 48 to 72 hr by agar disk diffusion method; format: functional
Staphylococcus aureus [12] = experiment: Antibacterial activity against Staphylococcus aureus 209-P assessed as growth inhibition at 0.1% after 24 hr by agar disk diffusion method; format: functional
Yamadazyma tenuis [13] = experiment: Antifungal activity against Candida tenuis assessed as growth inhibition after 24 to 72 hr by serial dilution method; format: functional
Escherichia coli [14] = experiment: Antibacterial activity against Escherichia coli B 906 assessed as growth inhibition at 0.1% after 24 hr by agar disk diffusion method; format: functional
Yamadazyma tenuis [15] = experiment: Antifungal activity against Candida tenuis assessed as growth inhibition at 0.1% after 48 to 72 hr by agar disk diffusion method; format: functional

Molecule | diameter of the inhibition zone (DIZ) (Mycobacterium [1]) [mm] | MIC (Aspergillus niger [2]) | diameter of the inhibition zone (DIZ) (Mycobacterium [3]) [mm] | diameter of the inhibition zone (DIZ) (Aspergillus niger [4]) [mm] | MIC (Escherichia coli [5]) | diameter of the inhibition zone (DIZ) (Escherichia coli [6]) [mm] | diameter of the inhibition zone (DIZ) (Aspergillus niger [7]) [mm] | diameter of the inhibition zone (DIZ) (Staphylococcus aureus [8]) [mm] | MIC (Staphylococcus aureus [9]) | MIC (Mycobacterium [10]) | diameter of the inhibition zone (DIZ) (Yamadazyma tenuis [11]) [mm] | diameter of the inhibition zone (DIZ) (Staphylococcus aureus [12]) [mm] | MIC (Yamadazyma tenuis [13]) | diameter of the inhibition zone (DIZ) (Escherichia coli [14]) [mm] | diameter of the inhibition zone (DIZ) (Yamadazyma tenuis [15]) [mm] | inhibition zone (IZ) (Aspergillus niger [7]) [mm] | inhibition zone (IZ) (Yamadazyma tenuis [15]) [mm]
O=C1C(SCc2ccc(Cl)cc2)=C(N2CCOCC2)C(=O)c2ccccc21 | 8 | inactive | 7 | 0 | inactive | 0 | 0 | 0 | inactive | inactive | 0 | 0 | inactive | 0 | 0 |  | 
O=C1C(Cl)=C(Sc2c(Cl)c(Cl)c(Cl)c(Cl)c2Cl)C(=O)c2ccccc21 | 0 | 250 µg/mL (≈ 529 µM) | 0 | 0 | inactive | 0 | 0 | 0 | inactive | inactive | 0 | 0 | 125 µg/mL (≈ 264 µM) | 0 | 0 |  | 
O=C1C(SCc2ccc(Cl)cc2)=C(N2CCSCC2)C(=O)c2ccccc21 | 13.4 | 31.2 µg/mL (≈ 75 µM) | 7 | 0 | inactive | 0 | 0 | 0 | inactive | 125 µg/mL (≈ 301 µM) | 0 | 0 | 7.8 µg/mL (≈ 18.8 µM) | 0 | 0 |  | 
COC(=O)CCSC1=C(Cl)C(=O)c2ccccc2C1=O | 18 | 7.8 µg/mL (≈ 25.1 µM) | 9 | 10.4 | inactive | 0 | 11 | 8 | inactive | 7.8 µg/mL (≈ 25.1 µM) | 13 | 6 | 1.9 µg/mL (≈ 6.11 µM) | 0 | 12.4 |  | 
O=C1C(SCc2ccc(Cl)cc2)=C(N2CCCCC2)C(=O)c2ccccc21 | 9 | inactive | 0 | 0 | inactive | 0 | 0 | 0 | inactive | 250 µg/mL (≈ 628 µM) | 0 | 0 | inactive | 0 | 0 |  | 
NYSTATIN |  |  |  |  |  |  |  |  |  |  |  |  |  |  |  | 20 | 19
CN[C@H](CC(C)C)C(=O)N[C@H]1C(=O)N[C@@H](CC(N)=O)C(=O)N[C@H]2C(=O)N[C@H]3C(=O)N[C@H](C(=O)N[C@H](C(=O)O)c4cc(O)cc(O)c4-c4cc3ccc4O)[C@H](O)c3ccc(c(Cl)c3)Oc3cc2cc(c3O[C@@H]2O[C@H](CO)[C@@H](O)[C@H](O)[C@H]2O[C@H]2C[C@](C)(N)[C@H](O)[C@H](C)O2)Oc2ccc(cc2Cl)[C@H]1O [VANCOMYCIN] |  |  | 18 |  |  |  |  |  |  |  |  | 15 |  | 14 |  |  | 
O=C1C2=C(SCCCCSC3=C(SCCCCS2)C(=O)c2ccccc2C3=O)C(=O)c2ccccc21 | 25.4 | 15.6 µg/mL (≈ 28.2 µM) | 21.4 | 19.4 | inactive | 0 | 16.4 | 12 | 500 µg/mL (≈ 905 µM) | 1.9 µg/mL (≈ 3.44 µM) | 11.4 | 10.4 | 3.9 µg/mL (≈ 7.06 µM) | 0 | 9.7 |  | 
COC(=O)CCSC1=C(SCCC(=O)OC)C(=O)c2ccccc2C1=O | 19.7 | 15.6 µg/mL (≈ 39.5 µM) | 15.4 | 14.7 | inactive | 0 | 12.4 | 13.4 | 250 µg/mL (≈ 634 µM) | 7.8 µg/mL (≈ 19.8 µM) | 15 | 10 | 15.6 µg/mL (≈ 39.5 µM) | 0 | 10 |  | 
O=C1C(SCc2ccc(Cl)cc2)=C(N2CCN(c3ccccc3F)CC2)C(=O)c2ccccc21 | 0 | inactive | 0 | 0 | inactive | 0 | 0 | 0 | inactive | inactive | 0 | 0 | inactive | 0 | 0 |  | 
CCOC1=C(Sc2nccn2C)C(=O)c2ccccc2C1=O | 0 | 15.6 µg/mL (≈ 49.6 µM) | 0 | 12 | inactive | 0 | 0 | 0 | inactive | inactive | 0 | 0 | 250 µg/mL (≈ 795 µM) | 0 | 0 |  | 
O=C1C(SCc2ccc(Cl)cc2)=C(N2CCCC2)C(=O)c2ccccc21 | 14.4 | 15.6 µg/mL (≈ 40.6 µM) | 8.7 | 0 | inactive | 0 | 0 | 0 | 250 µg/mL (≈ 651 µM) | 125 µg/mL (≈ 326 µM) | 0 | 0 | 7.8 µg/mL (≈ 20.3 µM) | 0 | 0 |  | 
